These are literature values, as cited in US20210386733A1, “LYSINE-SPECIFIC HISTONE DEMETHYLASE INHIBITORS FOR THE TREATMENT OF MYELOPROLIFERATIVE NEOPLASMS” (Imago Biosciences, Inc., priority 2019, published 2021).

The data set concerns primary myelofibrosis patients. The note with it: 50 to 100 mg/day in combination with prednisone; cited from earlier work.

`O=C1CCC(N2C(=O)c3ccccc3C2=O)C(=O)N1` (centres unmarked) [Thalidomide]: the “patients with improved anemia and thrombocytopenia” value is recorded as “approximately 60%”; the “patients with reduced spleen size” value is “approximately 20%”.
